Assay results from patent US7723119B2, “Method for determining solubility of a chemical compound” (Sirius Analytical Instruments Ltd., priority 2004, dated 2010).

Experiment: solubility determination by Chasing Equilibrium pH-metric titration
Type: physicochemical
Excerpt: In the Dissolution stage, the test solution is titrated with base titrant. In the Seeking Precipitation and Additional Precipitation stages, the test solution is titrated with acid titrant.
After the final data point of the Additional Precipitation stage has been collected, the method moves on to the Chasing Equilibrium stage. Chasing Equilibrium for an acidic sample is based on the following principles:
The first points are collected while adding base titrant to a supersaturated test solution. The addition of titrant is controlled by a computer program. The slope decreases with each aliquot of base that is added. […] Another aliquot of base is added to confirm that the slope is negative. If the slope remains negative, another data point is taken after adding no titrant. […] By successively adding aliquots of base and acid, the slope can be forced to change direction. When the slope has changed direction several (e.g. five) times the Chasing Equilibrium stage of the procedure is deemed to be complete.
The concentration of unionised solute in solution is calculated for each point in FIG. 7, and plotted against slope (pH/min) as shown in FIG. 8. The points are then connected by a line in the same order that they appeared in FIG. 7. The points corresponding to where the line crosses the zero value of the slope (pH/min) axis are determined by interpolation. The concentration equivalent to these zero slope, crossing points is determined. The solubility is then obtainable as the mean concentration calculated from the several zero slope, crossing points.
For each point located on either side of a zero slope crossing, the amount of neutral sample in solution could be calculated in the following steps:
1. […]
4. The concentration of free positive ions (e.g. K^+) is determined from the amount of base titrant (e.g. KOH) plus any positive ions in the test compound if it was a salt: [K^+]=(vbcb+mszs+/wf)/vt • wherein: cb is the concentration of base titrant • ms is the sample weight of test compound • zs+ is the charge of any positive salt counter-ions • wf is the formula weight of the test compound. […]

## O=C(O)Cc1ccccc1Nc1c(Cl)cccc1Cl [diclofenac]
0.15 M KCl solution titrated with acid and base, saline or isotonic, thermodynamic from solid, straight line interpolation of points A and B to zero pH slope, 0.15M KCl solution, sample introduced as sodium salt, read-out: equilibrium solubility (concentration of unionised compound at zero pH slope)
  solubility thermodynamic: ~0.732 µg/mL
Point A, one side of zero-slope crossing, pH=5.64453, pH slope=2.87 E-05
  dissolved neutral test sample: 759 ng/mL
Point B, other side of zero-slope crossing, pH=5.70437, pH slope=-3.5 E-06
  dissolved neutral test sample: 728 ng/mL
